Here are results for 10 compounds from patent US20260062443A1 (ALEXION PHARMACEUTICALS, INC., priority 2022, published 2026).

Some results are limits rather than exact numbers.

The target of this test is T1, Human complement C1s enzyme (Homo sapiens, UniProt P09871).
T1 sequence (P09871 438-688 limits assumed): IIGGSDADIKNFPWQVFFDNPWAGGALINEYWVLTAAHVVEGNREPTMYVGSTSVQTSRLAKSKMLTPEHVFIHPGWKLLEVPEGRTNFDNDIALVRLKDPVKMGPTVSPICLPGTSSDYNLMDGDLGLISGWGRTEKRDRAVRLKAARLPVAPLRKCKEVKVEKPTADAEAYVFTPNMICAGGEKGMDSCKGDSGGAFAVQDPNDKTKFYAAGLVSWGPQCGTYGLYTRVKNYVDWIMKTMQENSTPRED
T1 sequence (P09871 16-437 partner limits assumed): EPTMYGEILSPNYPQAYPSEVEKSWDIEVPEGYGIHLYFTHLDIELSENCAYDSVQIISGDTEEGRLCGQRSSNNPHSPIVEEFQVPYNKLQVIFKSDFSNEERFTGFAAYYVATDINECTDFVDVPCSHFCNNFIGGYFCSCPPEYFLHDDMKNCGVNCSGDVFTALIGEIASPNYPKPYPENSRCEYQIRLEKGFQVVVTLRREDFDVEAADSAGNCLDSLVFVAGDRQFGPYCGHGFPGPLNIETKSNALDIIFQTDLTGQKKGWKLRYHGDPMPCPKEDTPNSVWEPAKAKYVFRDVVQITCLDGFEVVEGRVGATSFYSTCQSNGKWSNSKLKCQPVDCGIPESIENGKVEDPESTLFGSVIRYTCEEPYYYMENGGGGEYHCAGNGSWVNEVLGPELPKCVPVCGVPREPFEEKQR
Description: Human C1s enzyme assay. The test is classed as biochemical. As to conditions: human complement C1s enzyme 1.16 nM, substrate Z-L-Lys-SBzl 100 μM, 5 min preincubation; read-out: IC50 (Stars), C1s Inhibiting Activity. Put shortly:
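Serum-purified human C1s (1.16 nM final) preincubated 5 min at room temperature with compound in 50 mM Tris, 1 M NaCl, pH 7.5. Z-L-Lys-SBzl and DTNB added at 100 μM each; A405 followed every 30 s for 30 min, and IC50 obtained by nonlinear regression of reaction rates.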
Take `Cc1ccc(-c2ccc3c(c2)CN(CC(=O)N2C[C@H](OC(F)F)C[C@H]2C(=O)N[C@H](C)c2cc4cnccc4[nH]2)C3=O)c(C)c1` [Compound 106, (2S,4R)-N-((R)-1-(1H-pyrrolo[3,2-c]pyridin-2-yl)ethyl)-4-(difluoromethoxy)-1-(2-(5-(2,4-dimethylphenyl)-1-oxoisoindolin-2-yl)acetyl)pyrrolidine-2-carboxamide]: the IC50 was less than 100 nM. As for `Cc1ccc(Nc2cccc(C(=O)NCC(=O)N3C[C@H](OC(F)F)C[C@H]3C(=O)NCc3cc4cnccc4[nH]3)c2)c(F)c1` [Compound 324, (2S,4R)-N-((1H-pyrrolo[3,2-c]pyridin-2-yl)methyl)-4-(difluoromethoxy)-1-((3-((2-fluoro-4-methylphenyl)amino)benzoyl)glycyl) pyrrolidine-2-carboxamide], the IC50 was less than 100 nM. In the case of `C[C@@H](NC(=O)[C@@H]1C[C@]2(C)C[C@@H]2N1C(=O)CNC(=O)c1cccc(Oc2ccccc2)c1)c1cc2cnccc2[nH]1` [Compound 171, (1S,3S,5S)-N-((R)-1-(1H-pyrrolo[3,2-c]pyridin-2-yl)ethyl)-5-methyl-2-((3-phenoxybenzoyl)glycyl)-2-azabicyclo[3.1.0]hexane-3-carboxamide] it was less than 100 nM. The value for `C[C@@H](NC(=O)[C@@H]1C[C@]2(Cc3nccs3)C[C@@H]2N1C(=O)CNC(=O)c1ccc2c(c1)Oc1ccccc1S2)c1cc2cnccc2[nH]1` [Compound 186, (1S,3S,5S)-N-((R)-1-(1H-pyrrolo[3,2-c]pyridin-2-yl)ethyl)-2-((phenoxathiine-3-carbonyl)glycyl)-5-(thiazol-2-ylmethyl)-2-azabicyclo[3.1.0]hexane-3-carboxamide] was less than 100 nM. The value for `C[C@@]12C[C@@H]1N(C(=O)CNC(=O)c1ccc3c(c1)Oc1ccccc1S3)[C@H](C(=O)NCc1ccc3c(c1)B(O)OC3)C2` [Compound 290, (1S,3S,5S)-N-((1-hydroxy-1,3-dihydrobenzo[c][1,2]oxaborol-6-yl)methyl)-5-methyl-2-((phenoxathiine-3-carbonyl)glycyl)-2-azabicyclo[3.1.0]hexane-3-carboxamide] was greater than 1000 nM; that for `C[C@@H](NC(=O)[C@@H]1CC2(CN1C(=O)CNC(=O)c1ccc(-c3ccccc3)cn1)OCCO2)c1cc2cnccc2[nH]1` [Compound 114, (S)-N-((R)-1-(1H-pyrrolo[3,2-c]pyridin-2-yl)ethyl)-7-((5-phenylpicolinoyl)glycyl)-1,4-dioxa-7-azaspiro[4.4]nonane-8-carboxamide] was 100 to 1000 nM. `C[C@@]12C[C@@H]1N(C(=O)CNC(=O)c1ccc3oc4ccccc4c3c1)[C@H](C(=O)NCc1cc3cnccc3[nH]1)C2` [Compound 203, (1S,3S,5S)-N-((1H-pyrrolo[3,2-c]pyridin-2-yl)methyl)-2-((dibenzo[b,d]furan-2-carbonyl)glycyl)-5-methyl-2-azabicyclo[3.1.0]hexane-3-carboxamide]: the IC50 was less than 100 nM. Turning to `O=C(NCC(=O)N1C[C@H](OC(F)F)C[C@H]1C(=O)NCc1ccc2c(n1)CCN2)c1ccc2c(c1)Oc1ccccc1S2` [Compound 264, (2S,4R)-4-(difluoromethoxy)-N-((2,3-dihydro-1H-pyrrolo[3,2-b]pyridin-5-yl)methyl)-1-((phenoxathiine-3-carbonyl)glycyl)pyrrolidine-2-carboxamide], the concentration for half-maximal inhibition (IC50) was greater than 1000 nM. In the case of `CC1c2ccccc2-c2cc(C(=O)NCC(=O)N3C[C@H](OC(F)F)C[C@H]3C(=O)NCc3cc4cnccc4[nH]3)ccc21` (stereo partly drawn) [Compound 302, (2S,4R)-N-((1H-pyrrolo[3,2-c]pyridin-2-yl)methyl)-4-(difluoromethoxy)-1-((9-methyl-9H-fluorene-3-carbonyl)glycyl) pyrrolidine-2-carboxamide] it was less than 100 nM; in that of `C[C@@H](NC(=O)[C@@H]1CC2(CN1C(=O)CNC(=O)c1ccc(-c3ccccc3)cc1)OCCO2)c1cc2cnccc2[nH]1` [Compound 79, (S)-N-((R)-1-(1H-pyrrolo[3,2-c]pyridin-2-yl)ethyl)-7-(([1,1′-biphenyl]-4-carbonyl)glycyl)-1,4-dioxa-7-azaspiro[4.4]nonane-8-carboxamide], 100 to 1000 nM.
